Data reported in patent US8703483B2, “Reagents and methods for using human embryonic stem cells to evaluate toxicity of pharmaceutical compounds and other chemicals” (Wisconsin Alumni Research Foundation, priority 2006, dated 2014).

Tested on: human embryonic stem cells
Assay: Metabolite profiling (LC/ESI-TOF mass spectrometry) of extracellular media of hESCs treated with alcohol
Format: cell-based
Conditions: ETOH 0.3
Excerpt: Binned masses were annotated in silico by querying the neutral masses in several different databases. These databases included Metlin, Biological Magnetic Resonance Data Bank (BMRB), NIST Chemistry WebBook, and the Human Metabolome Database. A mass was considered identified when its neutral mass was within 10 ppm of a known compound annotated in one of the databases listed above.

Q: For `CCO` [ETOH], which “Fold: Unknown, mass 268.2487, RT 42.3656” value (4 D) is on record?
A: The value was −1.517 fold.

Q: And the “Fold: Unknown, mass 284.9798, RT 5.69776” value (4 D)?
A: Its value is −1.2223 fold.

Q: And the “Fold: Unknown, mass 286.1519, RT 14.88092” value (4 D)?
A: The value was −1.862 fold.

Q: What about the “Fold: Unknown, mass 293.1952, RT 66.86661” value (4 D) of the same compound?
A: Its value is −2.154 fold.

Q: And the “Fold: Unknown, mass 293.9773, RT 4.014175” value (4 D)?
A: Its value is −2.267 fold.

Q: And the “Fold: Unknown, mass 294.1535, RT 20.67831” value (4 D)?
A: The value was −1.422 fold.

Q: And the “Fold: Unknown, mass 295.1521, RT 8.967061” value (4 D)?
A: The value was 1.467 fold.

Q: And the “Fold: Unknown, mass 301.1345, RT 7.719471” value (4 D)?
A: Its value is 2.678 fold.

Q: And the “Fold: Unknown, mass 315.6732, RT 26.51229” value (4 D)?
A: The value was −2.865 fold.

Q: And the “Fold: Unknown, mass 322.1166, RT 23.90107” value (4 D)?
A: The value was −2.4215 fold.

Q: What about the “Fold: Unknown, mass 332.1367, RT 20.72194” value (4 D) of the same compound?
A: Its value is −2.077 fold.

Q: What about the “Fold: Unknown, mass 340.9252, RT 5.033976” value (4 D) of the same compound?
A: The value was 2.625 fold.

Q: And the “Fold: Unknown, mass 353.2765, RT 3.85935” value (4 D)?
A: The value was 4.904 fold.

Q: And the “Fold: Unknown, mass 365.1606, RT 20.16372” value (4 D)?
A: The value was −1.925 fold.

Q: And the “Fold: Unknown, mass 375.1886, RT 26.07722” value (4 D)?
A: The value was −4.751 fold.

Q: And the “Fold: Unknown, mass 375.1898, RT 11.47109” value (4 D)?
A: Its value is 2.132 fold.

Q: And the “Fold: Unknown, mass 383.1721, RT 15.20829” value (4 D)?
A: The value was 3.377 fold.

Q: And the “Fold: Unknown, mass 387.0812, RT 19.97914” value (4 D)?
A: Its value is −1.699 fold.

Q: What about the “Fold: Unknown, mass 388.2349, RT 46.346” value (4 D) of the same compound?
A: The value was −1.532 fold.

Q: And the “Fold: Unknown, mass 393.1886, RT 19.69092” value (4 D)?
A: The value was −2.059 fold.

Q: And the “Fold: Unknown, mass 396.1687, RT 6.259963” value (4 D)?
A: Its value is 2.422 fold.

Q: What about the “Fold: Unknown, mass 403.1984, RT 17.27421” value (4 D) of the same compound?
A: Its value is −2.303 fold.

Q: What about the “Fold: Unknown, mass 417.2338, RT 33.09057” value (4 D) of the same compound?
A: Its value is −1.78 fold.

Q: What about the “Fold: Unknown, mass 417.2386, RT 21.14975” value (4 D) of the same compound?
A: The value was −1.573 fold.

Q: What about the “Fold: Unknown, mass 420.0513, RT 13.35295” value (4 D) of the same compound?
A: Its value is −1.902 fold.

Q: And the “Fold: Unknown, mass 421.2201, RT 27.46219” value (4 D)?
A: The value was −2.273 fold.

Q: What about the “Fold: Unknown, mass 429.2533, RT 18.03482” value (4 D) of the same compound?
A: Its value is −2.201 fold.

Q: What about the “Fold: Unknown, mass 443.2339, RT 30.87201” value (4 D) of the same compound?
A: The value was 2.171 fold.

Q: What about the “Fold: Unknown, mass 443.3216, RT 67.0705” value (4 D) of the same compound?
A: Its value is 1.688 fold.

Q: And the “Fold, Unknown metabolite, Mass 994.0917” value (4 D, retention time 3.646902)?
A: The value was 1.605.

Q: What about the “Fold, Unknown metabolite, Mass 980.075” value (4 D, retention time 3.680188) of the same compound?
A: The value was 1.481.

Q: And the “Fold, Unknown metabolite, Mass 1008.072” value (4 D, retention time 3.705141)?
A: The value was 1.416.

Q: What about the “Fold, Unknown metabolite, Mass 820.8181” value (4 D, retention time 4.613879) of the same compound?
A: Its value is −1.571.

Q: And the “Fold, Unknown metabolite, Mass 611.8727” value (4 D, retention time 4.936704)?
A: Its value is 2.01.

Q: And the “Fold, Unknown metabolite, Mass 1038.786” value (4 D, retention time 5.177162)?
A: The value was 1.588.

Q: What about the “Fold, Unknown metabolite, Mass 921.0025” value (4 D, retention time 5.399211) of the same compound?
A: Its value is 1.945.

Q: What about the “Fold, Unknown metabolite, Mass 555.8505” value (4 D, retention time 5.742094) of the same compound?
A: The value was −1.3396.

Q: What about the “Fold, Unknown metabolite, Mass 1040.323” value (4 D, retention time 5.8905) of the same compound?
A: The value was −1.479.

Q: What about the “Fold, Unknown metabolite, Mass 509.6704” value (4 D, retention time 5.891069) of the same compound?
A: Its value is 1.468.

Q: And the “Fold, metabolite Ethanesulfonic acid, Mass 579.2519” value (4 D, retention time 5.903169)?
A: Its value is −2.112.

Q: And the “Fold, Unknown metabolite, Mass 646.7084” value (4 D, retention time 5.903429)?
A: The value was 2.946.

Q: What about the “Fold, Unknown metabolite, Mass 732.007” value (4 D, retention time 5.918027) of the same compound?
A: Its value is 1.761.

Q: And the “Fold, Unknown metabolite, Mass 658.2544” value (4 D, retention time 8.787827)?
A: Its value is −3.21.

Q: And the “Fold, Unknown metabolite, Mass 502.2258” value (4 D, retention time 13.78553)?
A: The value was 1.866.

Q: And the “Fold, Unknown metabolite, Mass 566.2265” value (4 D, retention time 14.9927)?
A: The value was 1.624.

Q: And the “Fold, Unknown metabolite, Mass 555.2406” value (4 D, retention time 15.78741)?
A: Its value is 2.471.

Q: And the “Fold, Unknown metabolite, Mass 577.2825” value (4 D, retention time 16.90923)?
A: Its value is −8.917.

Q: What about the “Fold, Unknown metabolite, Mass 505.2616” value (4 D, retention time 18.36887) of the same compound?
A: The value was 2.009.

Q: And the “Fold, Unknown metabolite, Mass 489.2127” value (4 D, retention time 21.72729)?
A: Its value is 2.372.

Q: What about the “Fold, Unknown metabolite, Mass 462.2217” value (4 D, retention time 22.95657) of the same compound?
A: Its value is 1.936.

Q: What about the “Fold, metabolite L-Oleandrosyl-oleandolide, Mass 530.314” value (4 D, retention time 23.87065) of the same compound?
A: The value was 2.212.

Q: What about the “Fold, Unknown metabolite, Mass 574.3397” value (4 D, retention time 24.7039) of the same compound?
A: Its value is 1.524.

Q: And the “Fold, metabolite L-Urobilinogen, Mass 596.3543” value (4 D, retention time 25.14927)?
A: Its value is 1.545.

Q: What about the “Fold, Unknown metabolite, Mass 661.3846” value (4 D, retention time 26.7452) of the same compound?
A: The value was 1.547.

Q: What about the “Fold, Unknown metabolite, Mass 447.2509” value (4 D, retention time 29.86415) of the same compound?
A: Its value is −1.858.

Q: And the “Fold, Unknown metabolite, Mass 478.2761” value (4 D, retention time 30.28867)?
A: The value was 1.51.

Q: What about the “Fold, metabolite glucuronide, Mass 471.1928” value (4 D, retention time 30.37291) of the same compound?
A: Its value is 2.726.

Q: What about the “Fold, Unknown metabolite, Mass 449.2653” value (4 D, retention time 30.45343) of the same compound?
A: The value was −2.414.

Q: What about the “Fold, Unknown metabolite, Mass 471.7804” value (4 D, retention time 30.72707) of the same compound?
A: The value was −3.441.

Q: And the “Fold, Unknown metabolite, Mass 510.8202” value (4 D, retention time 31.22083)?
A: Its value is 2.502.

Q: And the “Fold, Unknown metabolite, Mass 559.8329” value (4 D, retention time 31.97996)?
A: The value was −2.566.

Q: What about the “Fold, Unknown metabolite, Mass 635.4065” value (4 D, retention time 32.08734) of the same compound?
A: Its value is 1.395.

Q: What about the “Fold, Unknown metabolite, Mass 531.2876” value (4 D, retention time 32.50661) of the same compound?
A: The value was 2.361.

Q: What about the “Fold, Unknown metabolite, Mass 603.3535” value (4 D, retention time 32.67372) of the same compound?
A: Its value is −2.94.

Q: And the “Fold, Unknown metabolite, Mass 460.9391” value (4 D, retention time 33.51823)?
A: Its value is −3.602.

Q: What about the “Fold, Unknown metabolite, Mass 619.3409” value (4 D, retention time 33.68866) of the same compound?
A: The value was 2.126.

Q: And the “Fold, Unknown metabolite, Mass 796.9917” value (4 D, retention time 34.60124)?
A: Its value is 1.689.

Q: What about the “Fold, Unknown metabolite, Mass 751.4193” value (4 D, retention time 35.028) of the same compound?
A: The value was 1.845.

Q: What about the “Fold, Unknown metabolite, Mass 531.3191” value (4 D, retention time 35.58454) of the same compound?
A: Its value is −3.0409.

Q: What about the “Fold, metabolite Neu5Acalpha2-3Galbeta1-4Glcbeta-Sp, Mass 702.2497” value (4 D, retention time 40.84822) of the same compound?
A: Its value is −2.216.

Q: And the “Fold, Unknown metabolite, Mass 518.3914” value (4 D, retention time 46.57666)?
A: The value was 2.289.

Q: What about the “Fold, Unknown metabolite, Mass 731.0954” value (4 D, retention time 47.76987) of the same compound?
A: The value was −3.25.

Q: And the “Fold, Unknown metabolite, Mass 576.096” value (4 D, retention time 47.90467)?
A: Its value is 1.558.

Q: And the “Fold, Unknown metabolite, Mass 444.2237” value (4 D, retention time 51.58546)?
A: Its value is 2.03.

Q: What about the “Fold, Unknown metabolite, Mass 468.2002” value (4 D, retention time 51.6158) of the same compound?
A: Its value is 1.92.

Q: And the “Fold, Unknown metabolite, Mass 526.2773” value (4 D, retention time 51.73057)?
A: The value was 2.715.

Q: What about the “Fold, Unknown metabolite, Mass 446.0431” value (4 D, retention time 54.8719) of the same compound?
A: The value was 1.934.

Q: And the “Fold, Unknown metabolite, Mass 531.3736” value (4 D, retention time 66.31491)?
A: Its value is 2.874.

Q: What about the “Fold, Unknown metabolite, Mass 487.3472” value (4 D, retention time 66.73744) of the same compound?
A: The value was 2.878.

Q: And the “Fold, Unknown metabolite, Mass 528.3631” value (4 D, retention time 71.36012)?
A: The value was 2.361.

Q: What about the “Fold, Unknown metabolite, Mass 556.3971” value (4 D, retention time 88.02533) of the same compound?
A: The value was −2.384.

Q: And the “Fold: 1,3-Dimethyl-8-isoquinolinol, mass 173.084, RT 20.23014” value (24 H)?
A: The value was −1.44 fold.

Q: What about the “Fold: 3,4-Dihydroxybutyric acid, mass 129.0452, RT 16.73904” value (24 H) of the same compound?
A: Its value is 1.796 fold.

Q: And the “Fold: 3-Methoxytyramine / Phenylephrine, mass 167.0941, RT 23.6763” value (24 H)?
A: The value was −2.83 fold.
